# Legend:
# [1] = biological target: T1, Peroxisome proliferator-activated receptor gamma (Homo sapiens, UniProt P37231)
# T1 sequence (P37231 whole entry): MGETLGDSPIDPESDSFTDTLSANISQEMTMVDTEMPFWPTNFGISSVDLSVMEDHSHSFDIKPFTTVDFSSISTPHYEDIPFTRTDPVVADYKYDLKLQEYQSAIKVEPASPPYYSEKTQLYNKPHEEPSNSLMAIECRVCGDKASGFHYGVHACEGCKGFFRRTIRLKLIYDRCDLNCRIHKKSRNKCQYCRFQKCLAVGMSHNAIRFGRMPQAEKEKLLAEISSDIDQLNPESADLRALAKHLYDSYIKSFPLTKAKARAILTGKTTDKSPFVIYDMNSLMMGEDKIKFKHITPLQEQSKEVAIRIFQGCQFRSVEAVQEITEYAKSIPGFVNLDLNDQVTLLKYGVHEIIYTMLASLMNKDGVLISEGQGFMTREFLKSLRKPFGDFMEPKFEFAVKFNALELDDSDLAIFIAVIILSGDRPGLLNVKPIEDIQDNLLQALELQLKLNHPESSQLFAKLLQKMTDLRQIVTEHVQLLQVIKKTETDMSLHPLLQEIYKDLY
# Description: Binding affinity was determined by displacement of 20 nM [3H]- thiazolidinedione from 4 nM biotinylated human peroxisome proliferator-activated receptor (PPAR gamma) ligand binding domain
# [2] = Tested for transactivation of human PPAR gamma-Gal4 chimera in CV-1 cells; assay type: functional, cell-based
# [3] = biological target: T1, Peroxisome proliferator-activated receptor gamma; assay: Binding affinity was determined by displacement of 20 nM [3H]- thiazolidinedione from 4 nM biotinylated human Peroxisome proliferator activated receptor gamma (PPAR gamma) ligand binding domain
Ki [1] [nM],Ki [3] [µM],Compound,EC50 [2] [nM]
6800,–,C=CCC/C=C/C(=O)NCCOc1ccc(CC2SC(=O)NC2=O)cc1 (stereo not drawn),–
600,–,C=CCCC(=O)N(C)CCOc1ccc(CC2SC(=O)NC2=O)cc1 (stereo not drawn),–
290,–,CCCCCCCC(=O)NCCOc1ccc(CC2SC(=O)NC2=O)cc1 (stereo not drawn),–
> 10000,–,C/C=C/CC(=O)NCCOc1ccc(CC2SC(=O)NC2=O)cc1 (stereo not drawn),–
180,–,CCCCCC(=O)N(C)CCOc1ccc(CC2SC(=O)NC2=O)cc1 (stereo not drawn),–
1200,–,CC/C=C/C(=O)N(C)CCOc1ccc(CC2SC(=O)NC2=O)cc1 (stereo not drawn),–
1100,–,CCCCC(=O)N(C)CCOc1ccc(CC2SC(=O)NC2=O)cc1 (stereo not drawn),–
–,10,CCCCCC(=O)NCCOc1ccc(CC2SC(=O)NC2=O)cc1 (stereo not drawn),–
1200,–,C/C=C/CC(=O)N(C)CCOc1ccc(CC2SC(=O)NC2=O)cc1 (stereo not drawn),–
1400,–,CCCCCCC(=O)NCCOc1ccc(CC2SC(=O)NC2=O)cc1 (stereo not drawn),–
270,–,CCCCCCCCC(=O)NCCOc1ccc(CC2SC(=O)NC2=O)cc1 (stereo not drawn),–
> 10000,–,CC/C=C/C(=O)NCCOc1ccc(CC2SC(=O)NC2=O)cc1 (stereo not drawn),–
> 10000,–,C=CCCC(=O)NCCOc1ccc(CC2SC(=O)NC2=O)cc1 (stereo not drawn),–
130,–,CCCCCCCCCC(=O)NCCOc1ccc(CC2SC(=O)NC2=O)cc1 (stereo not drawn),–
> 10000,–,CCCCC(=O)NCCOc1ccc(CC2SC(=O)NC2=O)cc1 (stereo not drawn),–
–,–,CN(CCOc1ccc(CC2SC(=O)NC2=O)cc1)c1ccccn1 (stereo not drawn) [ROSIGLITAZONE],50

Compound,Ki [1] [nM],Ki [3] [µM],EC50 [2] [nM]
CCCCCCCCC(=O)N(C)CCOc1ccc(CC2SC(=O)NC2=O)cc1 (stereo not drawn),18,–,280
CCCCC/C=C/C/C=C\C/C=C\C/C=C\CCCC(=O)O,1500,–,30000
CCCCCCCCCC(=O)N(C)CCOc1ccc(CC2SC(=O)NC2=O)cc1 (stereo not drawn),20,–,290
C=CCC/C=C/C(=O)N(C)CCOc1ccc(CC2SC(=O)NC2=O)cc1 (stereo not drawn),18,–,520
CCCCCCCC(=O)N(C)CCOc1ccc(CC2SC(=O)NC2=O)cc1 (stereo not drawn),48,–,280
CCCCCCC(=O)N(C)CCOc1ccc(CC2SC(=O)NC2=O)cc1 (stereo not drawn),61,–,810

# From ChEMBL document CHEMBL1130543, “Solid-phase synthesis of hybrid thiazolidinedione-fatty acid PPAR ligands” (Bioorg Med Chem Lett, 1997)
